Data as given in patent US10005774B2, “Syk inhibitors” (Gilead Sciences, Inc., priority 2013, dated 2018).
pIC50: −log10 of the molar value. “And” between values parts separate entries of the source, which are not always exact repeats. Identical values can stand only once.

target: Syk (Homo sapiens, UniProt P43405); assay: High Throughput Syk Biochemical Assay (KinEASE TR-FRET); conditions: TABLE D, 20 μM ATP, 1 μM biotinylated peptide, 0.015 nM Syk, 30 min at room temperature, read-out: IC50
Procedure: High Throughput Syk Biochemical Assay
Syk activity was measured using KinEASE (Cisbio), a time-resolved fluorescence resonance energy transfer (TR-FRET) immunoassay. In this assay. Syk-catalyzes the phosporylation of a XL665-labeled peptide substrate. Europium conjugated phospho-tyrosine specific antibody binds the resulting phosphorylated peptide. Formation of phosphorylated peptide is quantified by TR-FRET with Europium as the donor and XL665 the acceptor in a 2-step endpoint assay. In brief, test compounds serially diluted in DMSO were delivered into Corning white, low volume, non-binding 384 well plates using the Echo 550 acoustic liquid dispenser (Labcyte®). Syk enzyme and substrates were dispensed into assay plates using a Multi-Flo (Bio-Tek Instruments). […] Percent inhibition was calculated as follows: % Inhibition=100×(RatioSample−Ratio0% Inhibition)/(Ratio100% Inhibition−Ratio0% Inhibition)

SMILES | pIC50
COc1ccc(-c2cc3nc(C)n(C(C)C)c3c(O[C@H](C)[C@H]3CNC(=O)C3)n2)cc1OC [(R)-4-((R)-1-(6-(3,4-dimethoxyphenyl)-3-isopropyl-2-methyl-3H-imidazo[4,5-c]pyridin-4-yloxy)ethyl)pyrrolidin-2-one] | 6.50
CC(C)Cn1cc(-c2cc3ncn(C)c3c(O[C@H](C)[C@H]3CNC(=O)C3)n2)cn1 [(R)-4-((R)-1-(6-(1-isobutyl-1H-pyrazol-4-yl)-3-methyl-3H-imidazo[4,5-c]pyridin-4-yloxy)ethyl)pyrrolidin-2-one] | 7.80
C[C@@H](Oc1nc(-c2ccc(N3CCOCC3)nc2)cc2ncn(C)c12)[C@H]1CNC(=O)C1 | 7.94
C[C@@H](Oc1nc(-c2ccc(N3CCOCC3)cc2)cc2ncn(C(F)F)c12)[C@H]1CNC(=O)C1 [(R)-4-((R)-1-(3-(difluoromethyl)-6-(4-morpholinophenyl)-3H-imidazo[4,5-c]pyridin-4-yloxy)ethyl)pyrrolidin-2-one] | 8.81 and 8.90
CC[C@@H](Oc1nc(-c2cnn(C(C)(C)C)c2)cc2ncn(C)c12)[C@H]1CNC(=O)C1 [(R)-4-((R)-1-(6-(1-tert-butyl-1H-pyrazol-4-yl)-3-methyl-3H-imidazo[4,5-c]pyridin-4-yloxy)propyl)pyrrolidin-2-one] | 7.62
CC(C)n1cc(-c2cc(O[C@H](C)[C@H]3CNC(=O)C3)c3ccnn3c2)cn1 [(R)-4-((R)-1-(6-(1-isopropyl-1H-pyrazol-4-yl)pyrazolo[1,5-a]pyridin-4-yloxy)ethyl)pyrrolidin-2-one] | 8.38
COc1ccc(-c2cc3ncn(C4COC4)c3c(O[C@H](C)[C@H]3CNC(=O)C3)n2)cc1OC [(R)-4-((R)-1-(6-(3,4-dimethoxyphenyl)-3-(oxetan-3-yl)-3H-imidazo[4,5-c]pyridin-4-yloxy)ethyl)pyrrolidin-2-one] | 7.27
CC[C@@H](Oc1nc(-c2ccc(OC)c(OC)c2)cc2ncn(C)c12)[C@H]1CNC(=O)C1 | 8.12
C[C@@H](Oc1cc(-c2cnn(CC(F)F)c2)cc2ncsc12)[C@H]1CNC(=O)C1 (stereo in doubt) [(R)-4-((R)-1-((5-(1-(2,2-difluoroethyl)-1H-pyrazol-4-yl)benzo[d]thiazol-7-yl)oxy)ethyl)pyrrolidin-2-one] | 8.91
C[C@@H](Oc1nc(-c2cnn(CCF)c2)cc2ncn(C)c12)[C@H]1CNC(=O)C1 [(R)-4-((R)-1-(6-(1-(2-fluoroethyl)-1H-pyrazol-4-yl)-3-methyl-3H-imidazo[4,5-c]pyridin-4-yloxy)ethyl)pyrrolidin-2-one] | 7.88
COc1ccc(-c2cc3ncn(C4CCC4)c3c(O[C@H](C)[C@H]3CNC(=O)C3)n2)cc1OC [(R)-4-((R)-1-(3-cyclobutyl-6-(3,4-dimethoxyphenyl)-3H-imidazo[4,5-c]pyridin-4-yloxy)ethyl)pyrrolidin-2-one] | 7.63
COc1ccc(-c2cc3ncn(C(F)F)c3c(O[C@H](C)[C@H]3CNC(=O)C3)n2)cc1OC [(R)-4-((R)-1-(3-(difluoromethyl)-6-(3,4-dimethoxyphenyl)-3H-imidazo[4,5-c]pyridin-4-yloxy)ethyl)pyrrolidin-2-one] | 8.96
C[C@@H](Oc1nc(-c2ccc3c(c2)N(C)CCO3)cc2ncn(C)c12)[C@H]1CNC(=O)C1 [(R)-4-((R)-1-(3-methyl-6-(4-methyl-3,4-dihydro-2H-benzo[b][1,4]oxazin-6-yl)-3H-imidazo[4,5-c]pyridin-4-yloxy)ethyl)pyrrolidin-2-one] | 7.87
C[C@@H](Oc1nc(-c2cnn(CC(F)F)c2)cc2ncn(C(F)F)c12)[C@H]1CNC(=O)C1 [(R)-4-((R)-1-(6-(1-(2,2-difluoroethyl)-1H-pyrazol-4-yl)-3-(difluoromethyl)-3H-imidazo[4,5-c]pyridin-4-yloxy)ethyl)pyrrolidin-2-one] | 8.48

Other lines, results leading:

pIC50 | SMILES
7.98 | Cc1nn(C)c2ccc(-c3cc4ncn(C)c4c(O[C@H](C)[C@H]4CNC(=O)C4)n3)cc12 [(R)-4-((R)-1-((6-(1,3-dimethyl-1H-indazol-5-yl)-3-methyl-3H-imidazo[4,5-c]pyridin-4-yl)oxy)ethyl)pyrrolidin-2-one]
7.74 | C[C@@H](Oc1nc(-c2ccc(N3CCN(C(=O)OC(C)(C)C)CC3)cc2)cc2ncn(C)c12)[C@H]1CNC(=O)C1 [tert-butyl 4-(4-(3-methyl-4-((R)-1-((R)-5-oxopyrrolidin-3-yl)ethoxy)-3H-imidazo[4,5-c]pyridin-6-yl)phenyl)piperazine-1-carboxylate]
7.50 | COc1ccc(-c2cn3nc(C)cc3c(O[C@H](C)[C@H]3CNC(=O)C3)n2)cc1OC [(R)-4-((R)-1-((6-(3,4-dimethoxyphenyl)-2-methylpyrazolo[1,5-a]pyrazin-4-yl)oxy)ethyl)pyrrolidin-2-one]
8.04 | C[C@@H](Oc1cc(-c2ccc(N3CCN(C(=O)OC(C)(C)C)CC3)cc2)cc2ncsc12)[C@H]1CNC(=O)C1 (stereo in doubt) [tert-butyl 4-(4-(7-((R)-1-((R)-5-oxopyrrolidin-3-yl)ethoxy)benzo[d]thiazol-5-yl)phenyl)piperazine-1-carboxylate]
8.32 | COc1ccc(-c2cc(O[C@H](C)[C@H]3CNC(=O)C3)c3ccnn3c2)nc1OC [(R)-4-((R)-1-((6-(5,6-dimethoxypyridin-2-yl)pyrazolo[1,5-a]pyridin-4-yl)oxy)ethyl)pyrrolidin-2-one]
7.34 | COc1cccc(-c2cc(O[C@H](C)[C@H]3CNC(=O)C3)c3c(c2)ncn3C)n1 [(R)-4-((R)-1-((5-(6-methoxypyridin-2-yl)-1-methyl-1H-benzo[d]imidazol-7-yl)oxy)ethyl)pyrrolidin-2-one]
8.11 | C[C@@H](Oc1cc(-c2ccc(N3CCOCC3)cc2)cn2nccc12)[C@H]1CNC(=O)C1 [(R)-4-((R)-1-((6-(4-morpholinophenyl)pyrazolo[1,5-a]pyridin-4-yl)oxy)ethyl)pyrrolidin-2-one]
8.80 | CC(=O)N1CCN(c2ccc(-c3cc(O[C@H](C)[C@H]4CNC(=O)C4)c4scnc4c3)nc2)CC1 (stereo in doubt) [(R)-4-((R)-1-((5-(5-(4-acetylpiperazin-1-yl)pyridin-2-yl)benzo[d]thiazol-7-yl)oxy)ethyl)pyrrolidin-2-one]
8.27 | C[C@@H](Oc1cc(-c2cnn(C(C)(C)C)c2)cc2ncn(C)c12)[C@H]1CNC(=O)C1 [(R)-4-((R)-1-((5-(1-(tert-butyl)-1H-pyrazol-4-yl)-1-methyl-1H-benzo[d]imidazol-7-yl)oxy)ethyl)pyrrolidin-2-one]

same assay, conditions: table 'ALL NEW COMPOUNDS IN 2014', 20 μM ATP, 1 μM biotinylated peptide, 0.015 nM Syk, 30 min at room temperature, read-out: Syk IC50

SMILES | pIC50
C[C@@H](Oc1cc(-c2ccc(N3CC4CC(C3)O4)cn2)cc2ncn(C3CC3)c12)[C@H]1CNC(=O)C1 [(4R)-4-((1R)-1-((5-(5-(6-oxa-3-azabicyclo[3.1.1]heptan-3-yl)pyridin-2-yl)-1-cyclopropyl-1H-benzo[d]imidazol-7-yl)oxy)ethyl)pyrrolidin-2-one] | 8.25
CCOc1cc(-c2cc(O[C@H](C)[C@H]3CNC(=O)C3)c3c(c2)ncn3C2CC2)ccc1OC [(R)-4-((R)-1-((1-cyclopropyl-5-(3-ethoxy-4-methoxyphenyl)-1H-benzo[d]imidazol-7-yl)oxy)ethyl)pyrrolidin-2-one] | 7.89
C[C@@H](Oc1nc(-c2ccc3c(c2)OCCO3)cc2ncn(C3CC3)c12)[C@H]1CNC(=O)C1 [(R)-4-((R)-1-((3-cyclopropyl-6-(2,3-dihydrobenzo[b][1,4]dioxin-6-yl)-3H-imidazo[4,5-c]pyridin-4-yl)oxy)ethyl)pyrrolidin-2-one] | 8.26
C[C@@H](Oc1nc(-c2cnn(C(C)(C)CO)c2)cc2ncn(C3CC3)c12)[C@H]1CNC(=O)C1 | 8.46
C[C@@H](Oc1cc(-c2ccccc2)cc2ncn(C3CC3)c12)[C@H]1CNC(=O)C1 [(R)-4-((R)-1-((1-cyclopropyl-5-phenyl-1H-benzo[d]imidazol-7-yl)oxy)ethyl)pyrrolidin-2-one] | 7.74
C[C@@H](Oc1nc(-c2ccc(N3CCN(C4COC4)CC3)c(C#N)c2)cc2ncn(C3CC3)c12)[C@H]1CNC(=O)C1 [5-(3-cyclopropyl-4-((R)-1-((R)-5-oxopyrrolidin-3-yl)ethoxy)-3H-imidazo[4,5-c]pyridin-6-yl)-2-(4-(oxetan-3-yl)piperazin-1-yl)benzonitrile] | 8.28
Cc1cc(-c2cc3ncn(C4CC4)c3c(O[C@H](C)[C@H]3CNC(=O)C3)n2)ccc1N1CCN(C2COC2)CC1 [(R)-4-((R)-1-((3-cyclopropyl-6-(3-methyl-4-(4-(oxetan-3-yl)piperazin-1-yl)phenyl)-3H-imidazo[4,5-c]pyridin-4-yl)oxy)ethyl)pyrrolidin-2-one] | 8.84
C[C@@H](Oc1nc(-c2ccc3c(C4CC4)n[nH]c3c2)cc2ncn(C3CC3)c12)[C@H]1CNC(=O)C1 | 8.21
C[C@@H](Oc1nc(-c2ccc(N3CCN(C4COC4)CC3)cc2F)cc2ncn(C3CC3)c12)[C@H]1CNC(=O)C1 [(R)-4-((R)-1-((3-cyclopropyl-6-(2-fluoro-4-(4-(oxetan-3-yl)piperazin-1-yl)phenyl)-3H-imidazo[4,5-c]pyridin-4-yl)oxy)ethyl)pyrrolidin-2-one] | 8.00

The next lines start with the values.

pIC50 | SMILES
8.68 | C[C@@H](Oc1nc(-c2cnc(C(C)(C)C)s2)cc2ncn(C3CC3)c12)[C@H]1CNC(=O)C1 [(R)-4-((R)-1-((6-(2-(tert-butyl)thiazol-5-yl)-3-cyclopropyl-3H-imidazo[4,5-c]pyridin-4-yl)oxy)ethyl)pyrrolidin-2-one]
9.34 | C[C@@H](Oc1cc(-c2cnn(C(C)(C)C)c2)cc2ncn(C3CC3)c12)[C@H]1CNC(=O)C1 [(R)-4-((R)-1-((5-(1-(tert-butyl)-1H-pyrazol-4-yl)-1-cyclopropyl-1H-benzo[d]imidazol-7-yl)oxy)ethyl)pyrrolidin-2-one]
